{"source": "paper PMC3334918", "about": "“Mutagenesis and Functional Studies with Succinate Dehydrogenase Inhibitors in the Wheat Pathogen Mycosphaerella graminicola” (PLoS ONE, 2012)", "key": {"[1]": {"test_system": "M. graminicola strain Cbx22 (SDHD_D129E)", "assay": "in vivo sensitivity, liquid culture growth (AE media)", "format": "cell-based, Mycosphaerella graminicola", "settings": "D_D129E, ratio IC50mutant/IC50WT", "procedure": "(§1) To explore the sensitivity profiles conferred by amino acid substitutions at the cellular and mitochondrial level, we determined sensitivity towards 4 different compounds for 26 of the identified substitution types both in vivo using liquid culture growth (AE media) and in vitro using purified mitochondria and the succinate: Q0/DCPIP activity test (Table 3). […] Resistance factors (RF) were determined as the ratio IC50mutant/IC50WT. […] Qp site mutations are well known to influence SDH enzyme activity and stability upon catalysis, [13], [38], [41].\n(§2) Conidial cells were collected from 4 day old V8 agar plates (cultured at 18°C in the dark) using liquid AE and a cell spreader. Cell density was determined and cells re-suspended to a concentration of 5×10^5 cells ml^−1 in AE media. Sterile 96 wells microtiter plates with lids (Costar) were inoculated with 198 µl of this cell suspension (10^5 cells per well) and 2 µl of inhibitor (100× in DMSO). Final inhibitor concentrations were between 0.95 nM and 1 mM with uniform 4× dilution factor steps (11 inhibitor concentrations+1 DMSO control). Plates were incubated for 6 days at 19°C in the dark before cells were re-suspended and measured for growth (OD600 nm). IC50 values were determined by non linear curve fitting on the basis of measured OD values versus log inhibitor concentrations (GraphPad Prism 5.0 software)."}, "[2]": {"test_system": "M. graminicola strain Cbx28 (SDHB_H267Y)", "assay": "in vivo sensitivity, liquid culture growth (AE media)", "format": "cell-based, Mycosphaerella graminicola", "settings": "B_H267Y, strain Cbx28; ratio IC50mutant/IC50WT", "procedure": "as §1, §2"}, "[3]": {"test_system": "M. graminicola strain Flu29 (SDHD_D129T)", "assay": "in vivo sensitivity, liquid culture growth (AE media)", "format": "cell-based, Mycosphaerella graminicola", "settings": "D_D129T, ratio IC50mutant/IC50WT", "procedure": "as §1, §2"}, "[4]": {"test_system": "M. graminicola strain Bos64 (SDHC_T79I)", "assay": "in vivo sensitivity, liquid culture growth (AE media)", "format": "cell-based, Mycosphaerella graminicola", "settings": "C_T79I, ratio IC50mutant/IC50WT", "procedure": "as §1, §2"}, "[5]": {"test_system": "M. graminicola strain Cbx96 (SDHB_H267N)", "assay": "in vivo sensitivity, liquid culture growth (AE media)", "format": "cell-based, Mycosphaerella graminicola", "settings": "B_H267N, ratio IC50mutant/IC50WT", "procedure": "as §1, §2"}, "[6]": {"test_system": "M. graminicola strain Bos59 (SDHB_H267Q)", "assay": "in vivo sensitivity, liquid culture growth (AE media)", "format": "cell-based, Mycosphaerella graminicola", "settings": "B_H267Q, ratio IC50mutant/IC50WT", "procedure": "as §1, §2"}, "[7]": {"test_system": "M. graminicola strain Ol50 (SDHC_V88D)", "assay": "in vivo sensitivity, liquid culture growth (AE media)", "format": "cell-based, Mycosphaerella graminicola", "settings": "C_V88D, ratio IC50mutant/IC50WT", "procedure": "as §1, §2"}, "[8]": {"test_system": "M. graminicola strain Cbx12 (SDHC_L85P)", "assay": "in vivo sensitivity, liquid culture growth (AE media)", "format": "cell-based, Mycosphaerella graminicola", "settings": "C_L85P, ratio IC50mutant/IC50WT", "procedure": "as §1, §2"}, "[9]": {"test_system": "M. graminicola strain Flu41 (SDHB_S218F)", "assay": "in vivo sensitivity, liquid culture growth (AE media)", "format": "cell-based, Mycosphaerella graminicola", "settings": "B_S218F, ratio IC50mutant/IC50WT", "procedure": "as §1, §2"}, "[10]": {"test_system": "M. graminicola strain Cbx76 (SDHC_H145R)", "assay": "in vivo sensitivity, liquid culture growth (AE media)", "format": "cell-based, Mycosphaerella graminicola", "settings": "C_H145R, ratio IC50mutant/IC50WT", "procedure": "as §1, §2"}, "[11]": {"test_system": "M. graminicola strain Izm1 (SDHC_H152R)", "assay": "in vivo sensitivity, liquid culture growth (AE media)", "format": "cell-based, Mycosphaerella graminicola", "settings": "C_H152R, ratio IC50mutant/IC50WT", "procedure": "as §1, §2"}, "[12]": {"test_system": "M. graminicola strain Flu7 (SDHB_N225I)", "assay": "in vivo sensitivity, liquid culture growth (AE media)", "format": "cell-based, Mycosphaerella graminicola", "settings": "B_N225I, ratio IC50mutant/IC50WT", "procedure": "as §1, §2"}, "[13]": {"test_system": "M. graminicola strain Flu1 (SDHC_S83G)", "assay": "in vivo sensitivity, liquid culture growth (AE media)", "format": "cell-based, Mycosphaerella graminicola", "settings": "C_S83G, ratio IC50mutant/IC50WT", "procedure": "as §1, §2"}, "[14]": {"test_system": "M. graminicola strain Cbx1 (SDHB_I269V)", "assay": "in vivo sensitivity, liquid culture growth (AE media)", "format": "cell-based, Mycosphaerella graminicola", "settings": "B_I269V, ratio IC50mutant/IC50WT", "procedure": "as §1, §2"}, "[15]": {"test_system": "M. graminicola WT (IPO323)", "assay": "microbe, parasite or virus in culture", "format": "cell-based, Mycosphaerella graminicola", "procedure": "as §1, §2"}, "[16]": {"molecular_target": "succinate dehydrogenase (SDH), WT (IPO323) (Zymoseptoria tritici (Mycosphaerella graminicola), UniProt F9X9V6+F9XG45+F9XH52)", "sequence (F9XG45 entry or part of it)": "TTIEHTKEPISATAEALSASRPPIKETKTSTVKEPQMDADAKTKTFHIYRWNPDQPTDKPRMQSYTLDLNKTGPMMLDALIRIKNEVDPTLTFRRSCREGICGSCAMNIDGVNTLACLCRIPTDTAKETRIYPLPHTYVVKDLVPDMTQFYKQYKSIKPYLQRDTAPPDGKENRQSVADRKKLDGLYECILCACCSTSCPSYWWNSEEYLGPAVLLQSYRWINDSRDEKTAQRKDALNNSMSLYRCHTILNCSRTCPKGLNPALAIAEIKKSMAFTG", "sequence (F9X9V6 entry or part of it)": "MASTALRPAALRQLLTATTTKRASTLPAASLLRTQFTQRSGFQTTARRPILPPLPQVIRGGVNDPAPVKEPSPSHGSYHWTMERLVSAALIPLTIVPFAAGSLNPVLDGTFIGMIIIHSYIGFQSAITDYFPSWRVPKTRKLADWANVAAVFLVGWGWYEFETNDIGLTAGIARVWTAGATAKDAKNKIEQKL", "sequence (F9XH52 entry or part of it)": "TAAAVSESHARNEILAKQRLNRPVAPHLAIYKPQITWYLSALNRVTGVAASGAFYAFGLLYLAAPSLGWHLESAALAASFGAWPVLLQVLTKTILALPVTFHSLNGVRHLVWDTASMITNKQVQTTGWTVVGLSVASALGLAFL", "assay": "in vitro succinate: Q0/DCPIP activity test, purified mitochondria", "format": "biochemical", "settings": "±S.E. (triplicate), read-out: IC50 in vitro", "procedure": "as §1\nStrains were grown in 1 liter TSM40 units. Cultures were inoculated at 0.05 OD600 nm and grown on a reciprocal shaker (110 rpm, 22°C) for 5 days. Cells were harvested by vacuum filtration and disrupted in liquid nitrogen using a mortar and pestle. Resultant powder was re-suspended to 10% w/v in mitochondrial extraction buffer (10 mM KHPO4 pH7.2; 10 mM KCl, 10 mM MgCl2, 0.5 M sucrose, 0.2 mM EDTA, 2 mM PMSF). Extract was clarified by centrifugation (5,000 g, 4°C for 10 minutes, 2 times), intact mitochondria were then pelleted at 10,000 g for 20 minutes at 4°C. […] This volume was transferred to conical 1.5 ml tubes and re-centrifuged, 10,000 g for 10 minutes at 4°C. […] Mitochondrial suspensions were brought to a final concentration of 10 mg ml^−1 in extraction buffer and stored at −80°C until used.\nMitochondrial suspensions were incubated at 30°C for 30 minutes in extraction buffer supplemented with 10 mM succinate prior to enzymatic measurements.\nA reaction plate was equilibrated for 10 minutes at 30°C before starting the reaction. DCPIP reduction was conducted at 30°C and monitored at 595 nm using a HTS7000 microtiterplate reader (Perkin Elmer). For calculations a molecular extinction coefficient of ε = 17 mM^−1 cm^−1 was used.\nInhibitor concentrations ranged between 1 mM and 0.95 nM with uniform 4× dilution factor steps (11 inhibitor concentrations+DMSO control). 96 wells plates were pre equilibrated at reaction temperature (30°C) for 10 minutes before the reactions were started by the addition of 5 µl preactivated M. graminicola mitochondrial suspension. Calculated absorbance slopes (OD/hour) were used for IC50 calculations using Graphpad Prism 5.0 software non linear curve fitting against log inhibitor concentrations."}, "[17]": {"test_system": "wild type IPO323 M. graminicola strain", "format": "cell-based, Mycosphaerella graminicola", "settings": "minimal concentration to fully inhibit growth of WT IPO323, AE agar, 10^7 cells, 2 weeks at 20°C in the dark", "excerpt": "Selection plates were produced after adding 1% of a 100× DMSO solution of the active ingredients to pre-melted AE-agar."}}, "note": "Values joined by “and” are separate entries in the source; they are usually repeats but may differ in a detail not shown here. Equal entries are not always repeated."}
{"smiles": "CC(C)C1C2CCC1c1c(NC(=O)c3cn(C)nc3C(F)F)cccc12", "note": "(stereo not drawn) [Isopyrazam]", "values": [{"measurement": "Resistance Factors (RFs) in vivo", "setting": "[1]", "result": 6.8}, {"measurement": "Resistance Factors (RFs) in vivo", "setting": "[2]", "result": 16.1}, {"measurement": "Resistance Factors (RFs) in vivo", "setting": "[3]", "result": "33 and 33.5"}, {"measurement": "Resistance Factors (RFs) in vivo", "setting": "[4]", "result": 15.8}, {"measurement": "Resistance Factors (RFs) in vivo", "setting": "[5]", "result": 4.5}, {"measurement": "Resistance Factors (RFs) in vivo", "setting": "[6]", "result": 12.5}, {"measurement": "Resistance Factors (RFs) in vivo", "setting": "[7]", "result": 36.5}, {"measurement": "Resistance Factors (RFs) in vivo", "setting": "[8]", "result": 10.0}, {"measurement": "Resistance Factors (RFs) in vivo", "setting": "[9]", "result": 15.0}, {"measurement": "Resistance Factors (RFs) in vivo", "setting": "[10]", "result": 27.6}, {"measurement": "Resistance Factors (RFs) in vivo", "setting": "[11]", "result": 133.9}, {"measurement": "Resistance Factors (RFs) in vivo", "setting": "[12]", "result": 15.0}, {"measurement": "Resistance Factors (RFs) in vivo", "setting": "[13]", "result": 61.2}, {"measurement": "Resistance Factors (RFs) in vivo", "setting": "[14]", "result": 5.0}, {"measurement": "Resistance Factors (RFs) in vivo", "setting": "[15]; None, IPO323, ratio IC50mutant/IC50WT", "result": 1}, {"measurement": "IC50", "setting": "[15]; Zymoseptoria tritici, WT (IPO323), liquid culture growth, ±S.E. (triplicate), read-out: IC50 in vivo", "result": "55 ± 2", "unit": "nM"}, {"measurement": "IC50", "setting": "[16]", "result": "5 ± 0.3", "unit": "nM"}, {"measurement": "Minimal selective concentration (MSC)", "setting": "[17]", "result": "Isopyrazam 3 µM (MSC)"}]}
